EPA's ToxValDB 9.5

Test system: Rattus norvegicus
Settings: short-term, duration: 28 days, oral, gavage, Sprague-Dawley

In the case of `O=S(=O)([O-])C(F)(F)C(F)(F)C(F)(F)C(F)(F)C(F)(F)C(F)(F)F.[K+]` [Potassium perfluorohexanesulfonate], the NOEL (F, Clinical chemistry_Alanine aminotransferase) is reported as 50 mg/kg-day, the NOEL (F, Clinical chemistry_Albumin) is reported as 50 mg/kg-day and the NOEL (F, Clinical chemistry_Albumin/globulin ratio) is reported as 50 mg/kg-day. It also gave an NOEL (F, Clinical chemistry_Alkaline phosphatase) of 50 mg/kg-day, an NOEL (F, Clinical chemistry_Aspartate aminotransferase) of 50 mg/kg-day and an NOEL (F, Clinical chemistry_Cholesterol) of 50 mg/kg-day. It also gave an NOEL (F, Clinical chemistry_Direct bilirubin) of 50 mg/kg-day, an LOEL (F, Clinical chemistry_Free thyroxine) of 12.5 mg/kg-day and an NOEL (F, Clinical chemistry_Globulin) of 50 mg/kg-day. It also gave an NOEL (F, Clinical chemistry_Sorbitol dehydrogenase) of 50 mg/kg-day, an NOEL (F, Clinical chemistry_Testosterone) of 50 mg/kg-day and an NOEL (F, Clinical chemistry_Thyroid stimulating hormone) of 50 mg/kg-day. For the same molecule, the NOEL (F, Clinical chemistry_Total bile acids) was 50 mg/kg-day, the NOEL (F, Clinical chemistry_Total bilirubin) was 50 mg/kg-day and the NOEL (F, Clinical chemistry_Total protein) was 50 mg/kg-day. For the same molecule, the LOEL (F, Clinical chemistry_Total thyroxine) was 6.25 mg/kg-day, the NOEL (F, Clinical chemistry_Total triiodothyronine) was 50 mg/kg-day and the NOEL (F, Clinical chemistry_Triglycerides) was 50 mg/kg-day. The NOEL (F, Gene expression_Acox1) was 50 mg/kg-day, the LOEL (F, Gene expression_Cyp2b1) was 3.12 mg/kg-day and the LOEL (F, Gene expression_Cyp2b2) was 3.12 mg/kg-day. It also gave an NOEL (F, Gene expression_Cyp4a1) of 50 mg/kg-day, an NOEL (F, Hematology_Erythrocytes) of 50 mg/kg-day and an NOEL (F, Hematology_Hematocrit) of 50 mg/kg-day. It also gave an NOEL (F, Hematology_Hemoglobin) of 50 mg/kg-day, an NOEL (F, Hematology_Leukocytes) of 50 mg/kg-day and an NOEL (F, Hematology_Reticulocytes) of 50 mg/kg-day. For the same molecule, the NOEL (F, Hematology_S. neutrophils) was 50 mg/kg-day, the NOEL (F, Nonneoplastic effects_Bone marrow - Hypocellularity) was 50 mg/kg-day and the NOEL (F, Nonneoplastic effects_Kidney - Papilla, necrosis) was 50 mg/kg-day. For the same molecule, the NOEL (F, Nonneoplastic effects_Liver - Hepatocyte, cytoplasmic alteration) was 50 mg/kg-day, the NOEL (F, Nonneoplastic effects_Liver - Hepatocyte, hypertrophy) was 50 mg/kg-day and the NOEL (F, Nonneoplastic effects_Liver - Hepatocyte, vacuolization cytoplasmic) was 50 mg/kg-day. The NOEL (F, Nonneoplastic effects_Liver - Necrosis) was 50 mg/kg-day, the LOEL (F, Nonneoplastic effects_Nose - Olfactory epithelium, degeneration) was 50 mg/kg-day and the LOEL (F, Nonneoplastic effects_Nose - Olfactory epithelium, hyperplasia) was 50 mg/kg-day. The NOEL (F, Nonneoplastic effects_Nose - Olfactory epithelium, necrosis) was 50 mg/kg-day, the NOEL (F, Nonneoplastic effects_Spleen - Extramedullary hematopoiesis, decreased) was 50 mg/kg-day and the NOEL (F, Nonneoplastic effects_Stomach, forestomach - Epithelium, hyperplasia) was 50 mg/kg-day. For the same molecule, the NOEL (F, Nonneoplastic effects_Thymus - Atrophy) was 50 mg/kg-day, the NOEL (F, Organ weights_Heart - Absolute) was 50 mg/kg-day and the NOEL (F, Organ weights_Heart - Relative) was 50 mg/kg-day. The LOEL (F, Organ weights_Liver - Absolute) was 3.12 mg/kg-day, the LOEL (F, Organ weights_Liver - Relative) was 3.12 mg/kg-day and the NOEL (F, Organ weights_Lung - Absolute) was 50 mg/kg-day. It also gave an NOEL (F, Organ weights_Lung - Relative) of 50 mg/kg-day, an LOEL (F, Organ weights_R. adrenal gland - Absolute) of 12.5 mg/kg-day and an LOEL (F, Organ weights_R. adrenal gland - Relative) of 50 mg/kg-day. It also gave an NOEL (F, Organ weights_R. kidney - Absolute) of 50 mg/kg-day, an NOEL (F, Organ weights_R. kidney - Relative) of 50 mg/kg-day and an NOEL (F, Organ weights_Spleen - Absolute) of 50 mg/kg-day. It also gave an NOEL (F, Organ weights_Spleen - Relative) of 50 mg/kg-day, an NOEL (F, Organ weights_Thymus - Absolute) of 50 mg/kg-day and an NOEL (F, Organ weights_Thymus - Relative) of 50 mg/kg-day. It also gave an NOEL (F, Reproductive toxicity_Altered estrous cyclicity) of 50 mg/kg-day, an NOEL (F, Survival rates) of 50 mg/kg-day and an NOEL (F, body weight) of 50 mg/kg-day. For the same molecule, the NOEL (M, Clinical chemistry_Alanine aminotransferase) was 10 mg/kg-day, the NOEL (M, Clinical chemistry_Albumin) was 10 mg/kg-day and the LOEL (M, Clinical chemistry_Albumin/globulin ratio) was 10 mg/kg-day. It also gave an NOEL (M, Clinical chemistry_Alkaline phosphatase) of 10 mg/kg-day, an NOEL (M, Clinical chemistry_Aspartate aminotransferase) of 10 mg/kg-day and an LOEL (M, Clinical chemistry_Cholesterol) of 1.25 mg/kg-day. It also gave an NOEL (M, Clinical chemistry_Direct bilirubin) of 10 mg/kg-day, an LOEL (M, Clinical chemistry_Free thyroxine) of 0.625 mg/kg-day and an LOEL (M, Clinical chemistry_Globulin) of 10 mg/kg-day. The NOEL (M, Clinical chemistry_Sorbitol dehydrogenase) was 10 mg/kg-day, the NOEL (M, Clinical chemistry_Testosterone) was 10 mg/kg-day and the NOEL (M, Clinical chemistry_Thyroid stimulating hormone) was 10 mg/kg-day. It also gave an NOEL (M, Clinical chemistry_Total bile acids) of 10 mg/kg-day, an NOEL (M, Clinical chemistry_Total bilirubin) of 10 mg/kg-day and an NOEL (M, Clinical chemistry_Total protein) of 10 mg/kg-day. The LOEL (M, Clinical chemistry_Total thyroxine) was 0.625 mg/kg-day, the LOEL (M, Clinical chemistry_Total triiodothyronine) was 0.625 mg/kg-day and the LOEL (M, Clinical chemistry_Triglycerides) was 2.5 mg/kg-day. It also gave an LOEL (M, Gene expression_Acox1) of 5 mg/kg-day, an LOEL (M, Gene expression_Acyl-CoA oxidase) of 5 mg/kg-day and an LOEL (M, Gene expression_Cyp2b1) of 1.25 mg/kg-day. It also gave an LOEL (M, Gene expression_Cyp2b2) of 0.625 mg/kg-day, an LOEL (M, Gene expression_Cyp4a1) of 1.25 mg/kg-day and an NOEL (M, Hematology_Erythrocytes) of 10 mg/kg-day. For the same molecule, the NOEL (M, Hematology_Hematocrit) was 10 mg/kg-day, the NOEL (M, Hematology_Hemoglobin) was 10 mg/kg-day and the NOEL (M, Hematology_Leukocytes) was 10 mg/kg-day. The LOEL (M, Hematology_Reticulocytes) was 1.25 mg/kg-day, the NOEL (M, Hematology_S. neutrophils) was 10 mg/kg-day and the NOEL (M, Nonneoplastic effects_Bone marrow - Hypocellularity) was 10 mg/kg-day. It also gave an NOEL (M, Nonneoplastic effects_Kidney - Papilla, necrosis) of 10 mg/kg-day, an NOEL (M, Nonneoplastic effects_Liver - Hepatocyte, cytoplasmic alteration) of 10 mg/kg-day and an LOEL (M, Nonneoplastic effects_Liver - Hepatocyte, hypertrophy) of 2.5 mg/kg-day. For the same molecule, the NOEL (M, Nonneoplastic effects_Liver - Hepatocyte, vacuolization cytoplasmic) was 10 mg/kg-day, the NOEL (M, Nonneoplastic effects_Liver - Necrosis) was 10 mg/kg-day and the NOEL (M, Nonneoplastic effects_Nose - Olfactory epithelium, degeneration) was 10 mg/kg-day. It also gave an NOEL (M, Nonneoplastic effects_Nose - Olfactory epithelium, hyperplasia) of 10 mg/kg-day, an NOEL (M, Nonneoplastic effects_Nose - Olfactory epithelium, inflammation, suppurative) of 10 mg/kg-day and an NOEL (M, Nonneoplastic effects_Nose - Olfactory epithelium, necrosis) of 10 mg/kg-day. For the same molecule, the NOEL (M, Nonneoplastic effects_Spleen - Extramedullary hematopoiesis, decreased) was 10 mg/kg-day, the NOEL (M, Nonneoplastic effects_Stomach, forestomach - Epithelium, hyperplasia) was 10 mg/kg-day and the NOEL (M, Nonneoplastic effects_Thymus - Atrophy) was 10 mg/kg-day. The NOEL (M, Organ weights_Heart - Absolute) was 10 mg/kg-day, the NOEL (M, Organ weights_Heart - Relative) was 10 mg/kg-day and the LOEL (M, Organ weights_Liver - Absolute) was 1.25 mg/kg-day. The LOEL (M, Organ weights_Liver - Relative) was 1.25 mg/kg-day, the NOEL (M, Organ weights_Lung - Absolute) was 10 mg/kg-day and the NOEL (M, Organ weights_Lung - Relative) was 10 mg/kg-day. It also gave an LOEL (M, Organ weights_R. adrenal gland - Absolute) of 5 mg/kg-day, an LOEL (M, Organ weights_R. adrenal gland - Relative) of 2.5 mg/kg-day and an NOEL (M, Organ weights_R. kidney - Absolute) of 10 mg/kg-day. It also gave an LOEL (M, Organ weights_R. kidney - Relative) of 10 mg/kg-day, an NOEL (M, Organ weights_Spleen - Absolute) of 10 mg/kg-day and an NOEL (M, Organ weights_Spleen - Relative) of 10 mg/kg-day. For the same molecule, the NOEL (M, Organ weights_Thymus - Absolute) was 10 mg/kg-day, the NOEL (M, Organ weights_Thymus - Relative) was 10 mg/kg-day and the NOEL (M, Reproductive toxicity_Altered sperm parameters) was 10 mg/kg-day. It also gave an NOEL (M, Survival rates) of 10 mg/kg-day and an NOEL (M, body weight) of 10 mg/kg-day.
